In patent US20080004272A1, “Compositions and methods for modulating gated ion channels” (PainCeptor Pharma Corporation, priority 2006, published 2008):

Legend:
ASIC1a [1] = molecular target: T1, ASIC1a (Homo sapiens, UniProt P78348); assay: Two-electrode voltage clamp in Xenopus laevis oocytes (Xo), acid-induced currents; format: cell-based; design: expressed in transfected cells; host or cells: Xenopus laevis oocytes (nuclear microinjection of expression vector such as pcDNA3); settings: Xenopus oocytes; for inhibition at 50 µM: read-out: % inh. at 50 μM (Xo)
T1 sequence (P78348 1-528): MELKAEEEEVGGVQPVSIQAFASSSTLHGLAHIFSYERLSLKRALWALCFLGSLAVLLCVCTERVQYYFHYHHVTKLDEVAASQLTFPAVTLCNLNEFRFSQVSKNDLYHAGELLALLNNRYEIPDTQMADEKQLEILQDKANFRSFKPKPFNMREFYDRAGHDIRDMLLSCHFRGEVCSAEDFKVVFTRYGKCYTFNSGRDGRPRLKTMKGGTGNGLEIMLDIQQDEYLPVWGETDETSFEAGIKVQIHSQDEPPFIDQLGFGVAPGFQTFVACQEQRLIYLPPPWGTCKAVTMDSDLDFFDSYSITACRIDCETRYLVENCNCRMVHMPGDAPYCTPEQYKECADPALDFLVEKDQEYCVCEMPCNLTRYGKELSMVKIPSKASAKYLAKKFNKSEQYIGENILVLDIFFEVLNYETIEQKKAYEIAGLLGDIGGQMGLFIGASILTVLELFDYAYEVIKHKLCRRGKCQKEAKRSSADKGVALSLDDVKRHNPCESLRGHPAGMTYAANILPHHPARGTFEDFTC
Procedure: Two-electrode voltage clamp electrophysiological assays in Xenopus laevis oocytes expressing gated ion channels are performed as follows:
Oocytes are surgically removed from adult Xenopus laevis and treated for 2 h at room temperature with 1 mg/ml type I collagenase (Sigma) in Barth's solution under mild agitation. Selected oocytes at stage IV-V are defolliculated manually before nuclear microinjection of 2.5-5 ng of a suitable expression vector, such as pcDNA3, comprising the nucleotide sequence encoding a gated ion channel subunit protein. In such an experiment, the oocytes express homomultimeric proton-gated ion channels on their surface. In an alternate experiment, one, two, three or more vectors comprising the coding sequences for distinct gated ion channel subunits are co-injected in the oocyte nuclei. In the latter case, oocytes express heteromultimeric proton-gated ion channels. For example, ASIC2a and/or ASIC3 subunits in pcDNA3 vector are co-injected at a 1:1 cDNA ratio. After 2-4 days of expression at 19° C. in Barth's solution containing […] gentamicin and 1.8 mM CaCl2, gated ion channels are activated by applying an acidic solution (pH<7) and currents are recorded in a two electrode voltage-clamp configuration, using an OC-725B amplifier (Warner Instruments). Currents are acquired and digitized at 500 Hz on an Apple Imac G3 computer with an A/D NB-MIO-16XL interface (National Instruments) and recorded traces are post-filtered at 100 Hz in Axograph (Axon Instruments) (Neher, E. and Sakmann, B. (1976) Nature 260:799-802). Once impaled with the microelectrodes, oocytes are continuously superfused at 10-12 ml/min with a modified Ringer's solution containing 97 mM NaCl, 2 mM KCl, 1.8 mM CaCl2, and 10 mM HEPES brought to pH 7.4 with NaOH (Control Ringer). Test Ringer solution is prepared by replacing HEPES with MES and adjusting the pH to the desired acidic value. Compounds of the present invention are prepared in both the Control and Test Ringer solutions and applied to oocytes at room temperature through a computer-controlled switching valve system. Osmolarity of all solutions is adjusted to 235 mOsm with choline chloride. Similarly, recordings can also be acquired in an automated multichannel oocytes system as the OpusExpress™ (Molecular Devices, Sunnyvale, USA).
FIGS. 1A and 2A illustrate the inhibitory effects of Compounds 203 and 206 on acid-induced activation of recombinant homomeric hASIC1a channels.

ASIC1a [2] = molecular target: T1, ASIC1a; assay: Calcium imaging of MES-induced calcium response (FLIPR); format: cell-based; design: host or cells: HEK293; settings: ASIC1a expressing HEK293 cells, MES-induced calcium response; read-out: IC50 (FLIPR)
Procedure: […] Confluency of cells should be 80-90% on day of plating. Cells are rinsed with 10 ml of PBS and cells are re-suspended by addition of culture medium and trituration with a 25 ml pipette.
The cells are seeded at a density of approximately 1×10^6 cells/ml (100 μl/well) in black-walled, clear bottom, 96-well plates pre-treated with 10 mg/l poly-D-lysin (75 μl/well for ≧30 min). Plated cells are allowed to proliferate for 24 h before loading with dye.
Fluo-4/AM (1 mg, Molecular Probes) is dissolved in 912 μl DMSO. The Fluo-4/AM stock solution (1 mM) is diluted with culture medium to a final concentration of 2 μM (loading solution).
The culture medium is aspirated from the wells, and 50 μl of the Fluo-4/AM loading solution is added to each well. The cells are incubated at 37° C. for 30 min.
Following the second wash, 100 μl modified Assay Buffer is added to each well and the fluorescence is measured in FLIPR™ or FlexStation™ (Molecular Devices, USA), or any other suitable equipment known to the skilled in the art.
Temperature: Room temperature (20-22° C.)
First addition: 50 μl test solution at a rate of 30 μl/sec and a starting height of […]
Second addition: 50 μl MES solution (20 mM, 5 mM final concentration) at a rate of 35 μl/sec and a starting height of 150 μl.
Reading intervals: pre-incubation−10 sec×7 and 3 sec×3 antagonist phase−3 sec×7 and 10 sec×12
Addition plates (compound test plate and MES plate) are placed on the right and left positions in the FLIPR tray, respectively. Cell plates are placed in the middle position and the ASIC1a program is effectuated. FLIPR will then take the appropriate measurements in accordance with the interval settings above. Fluorescence obtained after stimulation is corrected for the mean basal fluorescence (in modified Assay Buffer).
The MES-induced peak calcium response, in the presence of test substance, is expressed relatively to the MES response alone. Test substances that block the MES-induced calcium response are re-tested in triplicates.

Row | Structure (SMILES) | inhibition at 50 µM (ASIC1a [1]) | IC50 (ASIC1a [2]) | IC50 (ASIC1a [1]; table value, read-out: IC50 (Xo))
1 | COc1ccc(F)cc1-c1cc2c(c3c1CCN(C)C3)NC(=O)/C2=N\O[C@H]1O[C@@H](CO)[C@H](O)[C@@H](O)[C@@H]1O [Compound 20] | < 25% | 20 to 30 µM | 
2 | CO/N=C1/C(=O)Nc2c1cc(-c1cc(F)ccc1OC)c1c2CN(C)CC1 [Compound 24] | 40 to 60% | 20 to 30 µM | 
3 | COc1ccc(C=O)cc1-c1cc2c(c3c1CCN(C)C3)NC(=O)/C2=N/O [Compound 30] | 40 to 60% | > 70 µM | 
4 | CN1CCc2c(-c3ccccc3)cc3c(c2C1)NC(=O)C31OCCO1 [Compound 76] | < 25% | 20 to 40 µM | 
5 | CN1CCc2c(-c3ccccc3)cc3c(c2C1)NCC31OCCO1 [Compound 77] | < 25% | > 70 µM | 
6 | CN1CCc2c(-c3ccccc3)cc3cc[nH]c3c2C1 [Compound 78] | < 25% | > 70 µM | 
7 | CN1CCc2c(-c3ccccc3)cc3c(c2C1)NC(=O)C3O (centres unmarked) [Compound 79] | < 25% | 20 to 40 µM | 
8 | CN1CCc2c(-c3ccccc3)cc3c(c2C1)C(=O)N(N)C3=O [Compound 80] | < 25% | > 70 µM | 
9 | CN1CCc2c(-c3ccccc3)cc3c(c2C1)NC(=O)C3 [Compound 81] | 20 to 40% | > 70 µM | 
10 | CN1CCc2c(-c3ccccc3)cc3c(c2C1)NC(=O)/C3=C/c1ccccc1C(=O)O [Compound 82] | < 25% | > 70 µM | 
11 | CN1CCc2c(-c3ccccc3)cc3c(c2C1)NC(=O)/C3=C/c1ccc(C(=O)O)cc1 [Compound 83] | < 25% | > 70 µM | 
12 | CN1CCc2c(-c3ccccc3)cc3c(c2C1)NC(=O)/C3=C/c1cccc(C(=O)O)c1 [Compound 84] | < 25% | > 70 µM | 
13 | CN1CCc2c(-c3ccccc3)cc3c(c2C1)NC(=O)/C3=C/c1cccc(O)c1 [Compound 85] | < 25% | > 70 µM | 
14 | CN1CCc2c(-c3ccccc3)cc3c(c2C1)NC(=O)/C3=C/c1ccccc1O [Compound 86] | < 25% | > 70 µM | 
15 | CN1CCc2c(-c3ccccc3)cc3c(c2C1)NC(=O)/C3=C/c1ccccc1 [Compound 87] | < 25% | > 70 µM | 
16 | CN1CCc2c(-c3ccccc3)cc3c(c2C1)NC(=O)/C3=C/c1ccc(O)cc1 [Compound 88] | < 25% | > 70 µM | 
17 | C/C=C1/C(=O)Nc2c1cc(-c1ccccc1)c1c2CN(C)CC1 [Compound 89] | < 25% | > 70 µM | 

Row | Structure (SMILES) | inhibition at 50 µM (ASIC1a [1]) | IC50 (ASIC1a [2]) | IC50 (ASIC1a [1]; table value, read-out: IC50 (Xo))
18 | CN1CCc2c(-c3ccccc3)cc3c(c2C1)NC(=O)/C3=C/c1ccccn1 [Compound 90] | < 25% | > 70 µM | 
19 | CN1CCc2c(-c3ccccc3)cc3c(c2C1)NC(=O)/C3=C/C(=O)O [Compound 91] | < 25% | > 70 µM | 
20 | CCOC(=O)/C=C1/C(=O)Nc2c1cc(-c1ccccc1)c1c2CN(C)CC1 [Compound 92] | < 25% | > 70 µM | 
21 | CN1CCc2c(-c3ccccc3)cc3c(c2C1)NC(=O)/C3=C1\CCCN1C [Compound 93] | < 25% | > 70 µM | 
22 | CN1CCc2c(-c3ccccc3)cc3c(O)cc(=O)[nH]c3c2C1 [Compound 94] | < 25% | > 70 µM | 
23 | CCN(CC)C(=O)c1cc(-c2cc(F)ccc2OC)cc(C)c1NC(=O)N(C)C [Compound 191, 4-(3,3-Dimethyl-ureido)-5′-fluoro-2′-methoxy-5-methyl-biphenyl-3-carboxylic acid diethylamide] | < 25% |  | 
24 | CCN(CC)C(=O)c1cc(-c2cc(F)ccc2OC)cc(C)c1NC(=O)N1CCNC1=O [Compound 192, 2-Oxo-imidazolidine-1-carboxylic acid (5-diethylcarbamoyl-5′-fluoro-2′-methoxy-3-methyl-biphenyl-4-yl)-amide] | < 25% |  | 
25 | CCN(CC)C(=O)c1cc(-c2cc(F)ccc2OC)cc(C)c1NC(=O)N1CCN(C(C)C)CC1 [Compound 193, 4-Isopropyl-piperazine-1-carboxylic acid (5-diethylcarbamoyl-5′-fluoro-2′-methoxy-3-methyl-biphenyl-4-yl)-amide] | < 25% |  | 
26 | COc1ccc(F)cc1-c1cc(C#N)c(N(C(C)=O)C(C)=O)c2c1CCN(C)C2 [Compound 194, N-Acetyl-N-[7-cyano-5-(5-fluoro-2-methoxy-phenyl)-2-methyl-1,2,3,4-tetrahydro-isoquinolin-8-yl]-acetamide] | < 25% |  | 
27 | COc1ccc(F)cc1-c1cc(C#N)c(NC(C)=O)c2c1CCN(C)C2 [Compound 195, N-[7-Cyano-5-(5-fluoro-2-methoxy-phenyl)-2-methyl-1,2,3,4-tetrahydro-isoquinolin-8-yl]-acetamide] | 25 to 40% |  | 
28 | COc1ccc(F)cc1-c1cc(C#N)c(N(S(C)(=O)=O)S(C)(=O)=O)c2c1CCN(C)C2 [Compound 196, N-[7-Cyano-5-(5-fluoro-2-methoxy-phenyl)-2-methyl-1,2,3,4-tetrahydro-isoquinolin-8-yl]-dimethanesulfonamide] | < 25% |  | 
29 | CCOC(=O)CNc1ccc(-c2ccccc2)c2c1CN(C)CC2 [Compound 204, (2-Methyl-5-phenyl-1,2,3,4-tetrahydro-isoquinolin-8-ylamino)-acetic acid ethyl ester] |  |  | > 50 µM
30 | COC(=O)CNc1ccc(-c2ccccc2)c2c1CN(C)CC2 [Compound 205, (2-Methyl-5-phenyl-1,2,3,4-tetrahydro-isoquinolin-8-ylamino)-acetic acid methyl ester] | 20 to 40% |  | 
31 | CN1CCc2c(-c3ccccc3)cc(/C(N)=N/O)c(N)c2C1 [Compound 207] | > 50% |  | 
32 | COc1ccc(F)cc1-c1cc(/C(N)=N/O)c(N)c2c1CCN(C)C2 [Compound 208] | 20 to 40% |  | 
33 | COc1ccc(F)cc1-c1cc(C#N)c(N2C(=O)CCC2=O)c2c1CCN(C)C2 [Compound 211] | < 25% |  | 
34 | CCN1CCc2c(-c3ccccc3)cc3[nH]c(=O)[nH]c3c2C1 [Compound 222] | < 25% |  | 
